Several values for one entry are separate records, joined by “and”; a condition that tells them apart may be missing. Equal values may be shown once. Inconclusive results and toxic doses are left out. Cut-off read from the data, not from the text of the source: active = T/C of 150% or more; inactive = T/C below 125%.
System: L1210 leukemia ip in BDF1 mice, survival T/C
Test: NCI In Vivo Anticancer Drug Screen. Data for tumor model L1210 Leukemia (intraperitoneal) in B6D2F1 (BDF1) mice
Settings: endpoint: mean survival time, higher = longer survival
Summary of the method: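 In this screen, tumor-bearing mice given compound are compared to those given vehicle, and their survival values are reported as a treated-to-control quotient.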

[1] = dose: 12.5 mg/kg/injection, schedule: Q04DX003 (ip), vehicle: saline
[2] = dose: 25.0 mg/kg/injection, schedule: Q01DX009 (ip), vehicle: saline
[3] = dose: 25.0 mg/kg/injection, schedule: Q04DX003 (ip), vehicle: saline
[4] = dose: 50.0 mg/kg/injection, schedule: Q04DX003 (ip), vehicle: saline
[5] = dose: 100.0 mg/kg/injection, schedule: Q01DX001 (ip), vehicle: saline
[6] = dose: 200.0 mg/kg/injection, schedule: Q01DX001 (ip), vehicle: saline
[7] = dose: 400.0 mg/kg/injection, schedule: Q01DX001 (ip), vehicle: saline
[8] = dose: 100.0 mg/kg/injection, schedule: Q04DX002 (ip), vehicle: Klucel (hydroxypropylcellulose) (HPC)
[9] = dose: 200.0 mg/kg/injection, schedule: Q04DX002 (ip), vehicle: Klucel (hydroxypropylcellulose) (HPC)
[10] = dose: 50.0 mg/kg/injection, schedule: Q01DX009 (ip), vehicle: saline with Tween-80
[11] = dose: 100.0 mg/kg/injection, schedule: Q01DX009 (ip), vehicle: saline with Tween-80
[12] = dose: 200.0 mg/kg/injection, schedule: Q01DX009 (ip), vehicle: saline with Tween-80

Measured: T/C

CN(C=O)C(=S)[S-].CN(C=O)C(=S)[S-].CN(C=O)C(=S)[S-].O=C(Nc1ccc(S(=O)(=O)Nc2ccc(N=Nc3ccc4nc([S-])sc4c3)cc2)cc1)C(N1CC1)(N1CC1)N1CC1.[Pd]
inactive: dose: 6.25 mg/kg/injection, schedule: Q01DX009 (ip), vehicle: saline 109 % of control | dose: 6.25 mg/kg/injection, schedule: Q04DX003 (ip), vehicle: saline 108 % of control | dose: 12.5 mg/kg/injection, schedule: Q01DX009 (ip), vehicle: saline 101 % of control | [1] 106 % of control | [2] 98 % of control | [3] 103 % of control

O=C(NCCF)NC1CCSCC1
inactive: dose: 100.0 mg/kg/injection, schedule: Q01DX001 (ip), vehicle: other 112 % of control | dose: 200.0 mg/kg/injection, schedule: Q01DX001 (ip), vehicle: other 103 % of control | dose: 400.0 mg/kg/injection, schedule: Q01DX001 (ip), vehicle: other 98 % of control

C=C[C+](CCCC)C(=O)[O-]
inactive: [2] 95 % of control | dose: 50.0 mg/kg/injection, schedule: Q01DX009 (ip), vehicle: saline 92 % of control | [4] 98 % of control | dose: 100.0 mg/kg/injection, schedule: Q01DX001 (ip), vehicle: acetone 96 % of control | dose: 100.0 mg/kg/injection, schedule: Q01DX009 (ip), vehicle: saline 87 % of control | dose: 100.0 mg/kg/injection, schedule: Q04DX003 (ip), vehicle: saline 93 % of control | dose: 150.0 mg/kg/injection, schedule: Q01DX009 (ip), vehicle: saline 101 % of control | dose: 200.0 mg/kg/injection, schedule: Q01DX001 (ip), vehicle: acetone 95 % of control | dose: 225.0 mg/kg/injection, schedule: Q01DX009 (ip), vehicle: saline 98 % of control

Cc1nccn1-c1ccc(N=Cc2ccc(N(CCCl)CCCl)cc2)cc1
inactive: dose: 43.8 mg/kg/injection, schedule: Q04DX002 (ip), vehicle: Klucel (hydroxypropylcellulose) (HPC) 106 % of control | dose: 87.5 mg/kg/injection, schedule: Q04DX002 (ip), vehicle: Klucel (hydroxypropylcellulose) (HPC) 106 % of control | dose: 175.0 mg/kg/injection, schedule: Q04DX002 (ip), vehicle: Klucel (hydroxypropylcellulose) (HPC) 109 % of control

O=c1nc2n(CC(O)C(O)C(O)CO)c3ccccc3cc-2c(=O)[nH]1 (stereo not drawn)
inactive: [5] 90 % of control | [6] 90 % of control | [7] 93 % of control

C1CCN(CCCCN2CCCCC2)CC1
inactive: [5] 96 % of control | [6] 104 % of control | [7] 108 % of control

O=C(N/N=C/c1cccc([N+](=O)[O-])c1)c1ccc(O)cc1
inactive: [8] 102 % of control | [9] 105 % of control

COc1ccc(OC)c(-n2cccc2C(=O)O)c1
inactive: [8] 90 % of control | [9] 97 % of control | dose: 400.0 mg/kg/injection, schedule: Q04DX002 (ip), vehicle: Klucel (hydroxypropylcellulose) (HPC) 93 % of control

O=C(O)CC(O)c1ccccc1 (stereo not drawn)
inactive: dose: 75.0 mg/kg/injection, schedule: Q01DX001 (ip), vehicle: saline 109 % of control | dose: 150.0 mg/kg/injection, schedule: Q01DX001 (ip), vehicle: saline 93 % of control | dose: 300.0 mg/kg/injection, schedule: Q01DX001 (ip), vehicle: saline 112 % of control

O=C(NCCCc1ccc(S(=O)(=O)F)cc1)Oc1ccc([N+](=O)[O-])cc1
inactive: dose: 25.0 mg/kg/injection, schedule: Q01DX009 (ip), vehicle: saline with Tween-80 102 % of control | [10] 100 % of control | [11] 93 % of control and 86 % of control

NC(N)=NNC=NCCc1ccc(O)cc1
inactive: dose: 15.0 mg/kg/injection, schedule: Q01DX Z (ip), vehicle: carboxymethylcellulose (CMC) 107 % of control | dose: 30.0 mg/kg/injection, schedule: Q01DX Z (ip), vehicle: carboxymethylcellulose (CMC) 98 % of control | dose: 60.0 mg/kg/injection, schedule: Q01DX Z (ip), vehicle: carboxymethylcellulose (CMC) 101 % of control | dose: 120.0 mg/kg/injection, schedule: Q01DX Z (ip), vehicle: carboxymethylcellulose (CMC) 103 % of control

CC(=O)N1CCC(CC[P+](c2ccccc2)(c2ccccc2)c2ccccc2)CC1
inactive: [1] 101 % of control | [3] 96 % of control | [4] 93 % of control

CC1(C)OC2OC(C(O)CSCc3ccccc3)C(O)C2O1 (stereo not drawn)
inactive: [10] 94 % of control | dose: 100.0 mg/kg/injection, schedule: Q01DX001 (ip), vehicle: saline with Tween-80 92 % of control | [11] 93 % of control | dose: 200.0 mg/kg/injection, schedule: Q01DX001 (ip), vehicle: saline with Tween-80 89 % of control | [12] 97 % of control

CC(=O)Nc1ccc(N=C(N)c2ccc(C(N)=Nc3ccc(NC(C)=O)cc3)cc2)cc1
inactive: dose: 62.0 mg/kg/injection, schedule: Q01DX015 (ip), vehicle: methylcellulose (MC) 98 % of control | dose: 125.0 mg/kg/injection, schedule: Q01DX015 (ip), vehicle: methylcellulose (MC) 86 % of control | dose: 250.0 mg/kg/injection, schedule: Q01DX015 (ip), vehicle: methylcellulose (MC) 91 % of control | dose: 500.0 mg/kg/injection, schedule: Q01DX015 (ip), vehicle: methylcellulose (MC) 86 % of control

CCCCCCCC1CCC(N)CC1 (stereo not drawn)
inactive: dose: 12.5 mg/kg/injection, schedule: Q04DX003 (ip), vehicle: Klucel (hydroxypropylcellulose) (HPC) 105 % of control | dose: 25.0 mg/kg/injection, schedule: Q04DX003 (ip), vehicle: Klucel (hydroxypropylcellulose) (HPC) 91 % of control | dose: 50.0 mg/kg/injection, schedule: Q04DX003 (ip), vehicle: Klucel (hydroxypropylcellulose) (HPC) 100 % of control

O=C(O)c1ccccc1C(=O)Nc1cccc2ccccc12
inactive: [8] 88 % of control | [9] 104 % of control

Oc1ccc2ccccc2c1N=Nc1ccc(N=Nc2ccccc2)cc1
inactive: [11] 102 % of control | [12] 106 % of control | dose: 400.0 mg/kg/injection, schedule: Q01DX009 (ip), vehicle: saline with Tween-80 102 % of control

CO[C](=O)[Hg][c]1ccc(N=Cc2ccc(N(C)C)cc2Cl)cc1
inactive: dose: 1.56 mg/kg/injection, schedule: Q01DX001 (ip), vehicle: saline with Tween-80 99 % of control | dose: 3.13 mg/kg/injection, schedule: Q01DX001 (ip), vehicle: saline with Tween-80 103 % of control | dose: 6.25 mg/kg/injection, schedule: Q01DX001 (ip), vehicle: saline with Tween-80 89 % of control

CC(=O)O/N=C(/CCC(=O)O)c1ccccc1
inactive: dose: 50.0 mg/kg/injection, schedule: Q04DX002 (ip), vehicle: saline with Tween-80 97 % of control | dose: 100.0 mg/kg/injection, schedule: Q04DX002 (ip), vehicle: saline with Tween-80 108 % of control | dose: 200.0 mg/kg/injection, schedule: Q04DX002 (ip), vehicle: saline with Tween-80 94 % of control

Source: PubChem BioAssay AID248 (DTP/NCI, 2004)
